From US10919858B2, “Thioacetate compounds, compositions and methods of use” (ARDEA BIOSCIENCES, INC., priority 2010, dated 2021)

target: URAT1 (Homo sapiens (Human), UniProt Q96S37); experiment: URAT1-model assay, 14C-uric acid transport in HEK293/URAT1-model cells; format: cell-based; conditions: 14C-uric acid 125 μM, 10 minutes at room temperature, read-out: URAT1 EC50 Activity Ranking
Experimental: HEK293 human embryonic kidney cells (ATCC #CRL-1573) were propagated in EMEM tissue culture medium as described by ATCC in an atmosphere of 5% C02 and 95% air. Transfections of HEK293 cells with a model URAT1 construct was performed using L2000 transfection reagent (Invitrogen) as described by the manufacturer. After 24 h the transfected cells were split into 10 cm tissue culture plates and grown for 1 day after which the medium was replaced with fresh growth medium containing G418 (Gibco) at 0.5 mg/ml final concentration. Drug-resistant colonies were selected after approximately 8 days and then tested for ^14C-uric acid transport activity. The HEK293/URAT1-model cells are plated on Poly-D-Lysine Coated 96-well Plates at a density of 125,000 cells per well.
Cells were grown overnight (20-26 hours) at 37° C. in an incubator. Plates were allowed to come to room temperature and media was washed out with one wash of 250 μl of Wash Buffer (125 mM Na Gluconate, 10 mM Hepes ph 7.3). Compound or vehicle is added in assay buffer with ^14C-uric acid for a final concentration of 125 μM Uric Acid with a specific activity of 54 mCi/mmol. Assay Buffer is 125 mM Sodium Gluconate, 4.8 mM Potassium Gluconate, 1.2 mM Potassium phosphate, monobasic, 1.2 mM magnesium sulfate, 1.3 mM Ca Gluconate, 5.6 mM Glucose, 25 mM HEPES, pH 7.3. Plates were incubated at room temperature for 10 minutes then washed 3 times with 50 μl Wash Buffer and 3 times with 250 μl Wash Buffer. Microscint 20 Scintillation Fluid was added and plates were incubated overnight at room temperature to equilibrate. Plates are then read on the TopCount Plate Reader and an EC50 value generated. (See Enomoto et al, Nature, 2002, 417, 447-451 and Anzai et al, J. Biol. Chem., 2004, 279, 45942-45950.)

URAT1, sequence (Q96S37 whole entry, species assumed): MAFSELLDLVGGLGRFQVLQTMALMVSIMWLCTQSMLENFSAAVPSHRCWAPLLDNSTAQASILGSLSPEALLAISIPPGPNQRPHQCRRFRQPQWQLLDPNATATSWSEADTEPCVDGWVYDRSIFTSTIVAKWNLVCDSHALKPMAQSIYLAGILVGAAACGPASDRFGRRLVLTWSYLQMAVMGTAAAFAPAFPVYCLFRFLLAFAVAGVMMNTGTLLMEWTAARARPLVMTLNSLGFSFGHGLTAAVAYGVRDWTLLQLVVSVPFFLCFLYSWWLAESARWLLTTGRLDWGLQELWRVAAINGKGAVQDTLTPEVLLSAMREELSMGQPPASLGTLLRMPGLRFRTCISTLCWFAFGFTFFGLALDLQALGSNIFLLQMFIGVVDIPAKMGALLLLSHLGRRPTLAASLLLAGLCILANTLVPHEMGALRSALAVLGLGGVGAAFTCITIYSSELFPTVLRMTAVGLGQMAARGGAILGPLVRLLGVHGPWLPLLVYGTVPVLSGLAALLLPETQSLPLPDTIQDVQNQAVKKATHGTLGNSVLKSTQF

| SMILES | EC50 |
| --- | --- |
| CC(C)(Sc1ccncc1-c1ccncc1)C(=O)O [Example 2PP] | 1 to 50 nM |
| COc1ccc(-c2cnccc2SC(C)(C)C(=O)O)cn1 [Example 2T] | 50 to 500 nM |
| CC(C)(Sc1ccncc1-c1ccc(C(N)=O)cc1)C(=O)O [Example 2KK] | 50 to 500 nM |
| N#Cc1ccc(-c2cncnc2SCC(=O)O)c2ccccc12 [Example 6A, 2-(5-(4-Cyanonaphthalen-1-yl)pyrimidin-4-ylthio)acetic acid] | 500 to 10000 nM |
| CC(C)(Sc1ccncc1-c1ccc(S(C)(=O)=O)cc1)C(=O)O [Example 2EEE] | 50 to 500 nM |
| CC(C)(Sc1ccncc1-c1cnc2ccccc2c1)C(=O)O [Example 2F] | 50 to 500 nM |
| CC(C)(Sc1ccncc1-c1ccc(C#N)c(Cl)c1)C(=O)O [Example 2FFF] | 1 to 50 nM |
| N#Cc1ccc(-c2nccnc2SCC(=O)O)c2ccccc12 [Example 5A, 2-(3-(4-Cyanonaphthalen-1-yl)pyrazin-2-ylthio)acetic acid] | 500 to 10000 nM |
| CCc1ccc(-c2cnccc2SC(C)(C)C(=O)O)cc1 [Example 2K] | 50 to 500 nM |
| CC(C)(Sc1ccncc1-c1ccc(C(F)(F)F)cc1)C(=O)O [Example 2N] | 50 to 500 nM |
| CC(C)(Sc1ccncc1-c1cncc2ccccc12)C(=O)O [Example 2U] | 50 to 500 nM |
| COc1cncc(-c2cnccc2SC(C)(C)C(=O)O)c1 [Example 2MM] | 50 to 500 nM |
| CC(C)(Sc1ccncc1-c1ccc(C#N)cc1)C(=O)O [Example 2A, 2-(3-(4-Cyanophenyl)pyridin-4-ylthio)-2-methylpropanoic acid] | 1 to 50 nM |
| N#Cc1ccc(-c2ncncc2SCC(=O)O)c2ccccc12 [Example 7A, 2-(4-(4-Cyanonaphthalen-1-yl)pyrimidin-5-ylthio)acetic acid] | 500 to 10000 nM |
| CC(C)(Sc1ccncc1-c1cccc2ncccc12)C(=O)O [Example 2H] | 50 to 500 nM |
| N#Cc1ccc(-c2cnccc2SC2(C(=O)O)CCC2)c2ccccc12 [Example 2J] | 1 to 50 nM |
| CC(C)(Sc1cnccc1-c1ccc(C#N)cc1)C(=O)O [Example 3A, 2-(4-(4-Cyanophenyl)pyridin-3-ylthio)-2-methylpropanoic acid] | 500 to 10000 nM |
| CC(C)(Sc1ccncc1-c1ccc(S(=O)(=O)NC2CC2)cc1)C(=O)O [Example 2D] | 50 to 500 nM |
| N#Cc1ccc(-c2cccnc2SC2(C(=O)O)CCC2)c2ccccc12 [Example 4C] | 50 to 500 nM |
| CC(C)(Sc1ccncc1-c1cccc2ccccc12)C(=O)O [Example 2DD] | 50 to 500 nM |
| CC(C)(Sc1ccncc1-c1ccc(CO)cc1)C(=O)O [Example 2JJ] | 1 to 50 nM |
| CC(=O)Nc1ccc(-c2cnccc2SC(C)(C)C(=O)O)cc1 [Example 2DDD] | 50 to 500 nM |
| CC(C)(Sc1cccnc1-c1ccc(C#N)cc1)C(=O)O [Example 1A, 2-(2-(4-Cyanophenyl)pyridin-3-ylthio)-2-methylpropanoic acid] | 50 to 500 nM |
| CC(C)(Sc1ccncc1-c1ccc(S(N)(=O)=O)cc1)C(=O)O [Example 2CC] | 50 to 500 nM |
| COc1ccc(-c2cnccc2SC(C)(C)C(=O)O)cc1 [Example 2XX] | 50 to 500 nM |
| CC(C)(Sc1ccncc1-c1ccnc2ccccc12)C(=O)O [Example 2II] | 50 to 500 nM |

Second part, the compound after the results:

| EC50 | SMILES |
| --- | --- |
| 50 to 500 nM | CC(C)(Sc1ccncc1-c1ccc(C#N)c(F)c1)C(=O)O [Example 2BBB] |
| 50 to 500 nM | CC(C)(Sc1ccncc1-c1ccc(Cl)c(C(F)(F)F)c1)C(=O)O [Example 2EE] |
| 1 to 50 nM | CC(C)(Sc1ccncc1-c1ccc(Cl)cc1)C(=O)O [Example 2O] |
| 1 to 50 nM | CC(C)(Sc1ccncc1-c1ccc(Cl)cc1)C(=O)O [Example 2P] |
| 1 to 50 nM | Cc1cc(C#N)ccc1-c1cnccc1SC(C)(C)C(=O)O [Example 2NN] |
| 50 to 500 nM | CC(C)(Sc1ccncc1-c1ccc(Br)c2ccccc12)C(=O)O [Example 2AA] |
| 50 to 500 nM | Cc1ccc(-c2cnccc2SC(C)(C)C(=O)O)c2ccccc12 [Example 2BB] |
| 1 to 50 nM | CC(C)(Sc1ccncc1-c1ccc(O)cc1)C(=O)O [Example 2AAA] |
| 50 to 500 nM | CC(C)(Sc1ccncc1-c1ccc(S)cc1)C(=O)O [Example 2GGG] |
| 1 to 50 nM | CC(C)(Sc1ccncc1-c1ccc(C#N)cc1F)C(=O)O [Example 2III] |
| 50 to 500 nM | CC(C)(Sc1ccncc1-c1cccc(C#N)c1)C(=O)O [Example 2TT] |
| 50 to 500 nM | COc1cc(-c2cnccc2SC(C)(C)C(=O)O)ccc1C#N [Example 2ZZ] |
| 50 to 500 nM | CC(C)(Sc1ccncc1-c1ccc(C(N)=O)cc1F)C(=O)O [Example 2JJJ] |
| 1 to 50 nM | CC(C)(Sc1ccncc1-c1ccc(F)c2ccccc12)C(=O)O [Example 2X] |
| 50 to 500 nM | CC(C)(Sc1ccncc1-c1ccc(F)cc1)C(=O)O [Example 2GG] |
| 1 to 50 nM | CC(C)(Sc1ccncc1-c1ccc(C#N)c2ccccc12)C(=O)O [Example 2C] |
| 50 to 500 nM | CSc1ccc(-c2cnccc2SC(C)(C)C(=O)O)cc1 [Example 2Q] |
| 50 to 500 nM | CC(C)(Sc1ccncc1-c1ccc(F)c(F)c1)C(=O)O [Example 2W] |
| 50 to 500 nM | Cc1ccc(-c2cnccc2SC(C)(C)C(=O)O)cc1 [Example 2CCC] |
| 50 to 500 nM | CC(C)(Sc1ccncc1-c1ccc(Cl)c(Cl)c1)C(=O)O [Example 2S] |
| 1 to 50 nM | CC(C)(Sc1ccncc1-c1ccc(Br)cc1)C(=O)O [Example 2UU] |
| 50 to 500 nM | Cc1cc(C(N)=O)ccc1-c1cnccc1SC(C)(C)C(=O)O [Example 2WW] |
